Source: patent publication US7906491B2 (Univisitair Medisch Centrum Utrecht, priority 2002, dated 2011)

Legend:
[1] = target: T1, Epac1-ΔDEP1 (Homo sapiens, UniProt O95398); assay: In vitro GEF assay: Epac activity in the exchange reaction towards Rap (mantGDP-loaded Rap1b); type: biochemical; conditions: in vitro in the exchange reaction towards Rap; further: key: +++: activity comparible to I-007; ++: activity between I-007 and cAMP; +: activity comparible to cAMP; ±: activity less than cAMP
T1 sequence (O95398 191-923 limits assumed): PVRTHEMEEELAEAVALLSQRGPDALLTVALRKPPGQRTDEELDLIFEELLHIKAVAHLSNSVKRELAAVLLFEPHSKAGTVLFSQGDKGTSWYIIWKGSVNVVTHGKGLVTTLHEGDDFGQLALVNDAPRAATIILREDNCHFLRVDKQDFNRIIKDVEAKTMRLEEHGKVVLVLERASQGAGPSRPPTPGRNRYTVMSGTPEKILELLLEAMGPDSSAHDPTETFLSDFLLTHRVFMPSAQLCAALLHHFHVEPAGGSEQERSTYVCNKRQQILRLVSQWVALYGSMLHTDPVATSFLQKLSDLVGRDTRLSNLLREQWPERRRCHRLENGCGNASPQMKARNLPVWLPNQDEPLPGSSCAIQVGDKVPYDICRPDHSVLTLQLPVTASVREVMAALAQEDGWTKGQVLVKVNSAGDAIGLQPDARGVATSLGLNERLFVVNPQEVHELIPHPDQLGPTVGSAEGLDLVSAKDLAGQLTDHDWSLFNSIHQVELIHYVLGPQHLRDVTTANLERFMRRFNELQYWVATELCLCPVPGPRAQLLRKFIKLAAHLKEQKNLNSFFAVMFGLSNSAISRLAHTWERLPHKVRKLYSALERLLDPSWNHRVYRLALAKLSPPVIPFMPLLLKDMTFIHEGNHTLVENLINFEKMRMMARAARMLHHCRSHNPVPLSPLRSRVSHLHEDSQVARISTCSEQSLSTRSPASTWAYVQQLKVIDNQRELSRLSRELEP
Experimental: In vitro GEF assays were performed as described (3,16). […] Buffer conditions were 50 mM Tris pH7.4, 150 mM NaCl, 5% glycerol, 5 mM DTE, 60 μM GTP. Reactions were carried out in 96-well plates and measured in a Cary Eclipse from Varian Inc., using the manufacturers software.

[2] = target: T2, Epac (Homo sapiens, UniProt O95398); assay: Relative affinity for Epac (cAMP = 1), in vitro; type: binding; conditions: relative to cAMP = 1
T2 sequence (O95398 1-923): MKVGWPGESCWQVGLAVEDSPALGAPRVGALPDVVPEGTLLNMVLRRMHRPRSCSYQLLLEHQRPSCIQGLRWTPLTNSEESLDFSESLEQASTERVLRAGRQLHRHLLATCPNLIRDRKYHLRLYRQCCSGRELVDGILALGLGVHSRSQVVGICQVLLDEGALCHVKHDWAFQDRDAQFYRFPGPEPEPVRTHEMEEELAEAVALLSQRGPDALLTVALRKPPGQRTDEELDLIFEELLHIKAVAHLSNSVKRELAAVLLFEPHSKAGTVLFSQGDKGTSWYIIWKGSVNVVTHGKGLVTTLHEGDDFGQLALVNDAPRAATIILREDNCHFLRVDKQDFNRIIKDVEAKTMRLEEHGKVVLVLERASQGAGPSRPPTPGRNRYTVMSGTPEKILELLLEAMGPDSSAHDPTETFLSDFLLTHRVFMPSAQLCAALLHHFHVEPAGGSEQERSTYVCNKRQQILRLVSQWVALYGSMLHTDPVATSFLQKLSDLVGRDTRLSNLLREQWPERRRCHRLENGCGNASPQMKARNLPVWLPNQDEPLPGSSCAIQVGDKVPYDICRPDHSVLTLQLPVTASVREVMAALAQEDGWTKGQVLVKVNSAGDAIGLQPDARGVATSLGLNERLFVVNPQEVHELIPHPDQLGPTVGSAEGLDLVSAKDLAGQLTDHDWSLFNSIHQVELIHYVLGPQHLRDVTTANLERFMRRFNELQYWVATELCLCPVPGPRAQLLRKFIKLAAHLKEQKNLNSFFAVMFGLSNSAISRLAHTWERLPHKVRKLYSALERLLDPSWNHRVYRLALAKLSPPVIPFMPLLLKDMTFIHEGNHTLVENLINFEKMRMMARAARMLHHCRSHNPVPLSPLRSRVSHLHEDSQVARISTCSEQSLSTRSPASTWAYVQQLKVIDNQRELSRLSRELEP

[3] = tested on: PKAI; assay: Relative affinity for PKAI (cAMP = 1), in vitro; type: binding; conditions: relative to cAMP = 1
[4] = tested on: PKAII; assay: Relative affinity for PKAII (cAMP = 1), in vitro; type: binding; conditions: relative to cAMP = 1

Row | Substance | Relative activity of Epac* [1] | Relative affinity CAMP = 1 Epac [2] | Relative affinity CAMP = 1 PKAI [3] | Relative affinity CAMP = 1 PKAII [4]
1 | 8-(2-amino-phenylthio)-2′-O-methyladenosine-3′,5′-cyclic monophosphate [Compound I-107] | + | 1.3 | 0.004 | 0.0001
2 | 8-(4-chloro-phenylthio)-2′-deoxyadenosine-3′,5′-cyclic monophosphate [Compound I-003] | + | 0.2 | 0.001 | 0.001
3 | 8-(4-fluoro-phenylthio)-2′-O-methyladenosine-3′,5′-cyclic monophosphate [Compound I-102] | +++ | 4.5 | 0.02 | 0.0004
4 | 8-(4-methoxy-phenylthio)-2′-O-methyladenosine-3′,5′-cyclic monophosphate [Compound I-112] | +++ | 6.5 | 0.025 | 0.0006
5 | 8-(4-methyl-cumarinyl-7-thio)-2′-O-methyladenosine-3′,5′-cyclic monophosphate [Compound I-103] | ± | 1.8 | 0.03 | 0.0005
6 | 8-(4-nitro-phenylthio)-2′-O-methyladenosine-3′,5′-cyclic monophosphate [Compound I-106] | ++ | 1.2 | 0.02 | 0.0002
7 | 8-(naphtyl-2-thio)-2′-O-methyladenosine-3′,5′-cyclic monophosphate [Compound I-104] | ++ | 2.3 | 0.03 | 0.001
8 | 8-benzylthio-2′-O-methyladenosine-3′,5′-cyclic monophosphate [Compound I-108] | + | 1.3 | 0.04 | 0.0007
9 | 8-bromo-2′-O-methyladenosine-3′,5′-cyclic monophosphate [Compound I-006] | ++ | 0.9 | 0.0015 | 0.003
10 | 8-bromo-2′-deoxyadenosine-3′,5′-cyclic monophosphate [Compound I-002] | + | 0.12 | 0.01 | 0.00001
11 | 8-isopropylthio-2′-O-methyladenosine-3′,5′-cyclic monophosphate [Compound I-113] | + | 0.7 | 0.028 | 0.0004
12 | 8-methylamino-2′-O-methyladenosine-3′,5′-cyclic monophosphate [Compound I-100] | ± | <0.5 | 0.0014 | 0.0001
13 | 8-methylthio-2′-O-methyladenosine-3′,5′-cyclic monophosphate [Compound I-101] | + | 1.3 | 0.012 | 0.0006
14 | 8-n-hexylthio-2′-O-methyladenosine-3′,5′-cyclic monophosphate [Compound I-109] | ++ | 1.2 | 0.03 | 0.0008
15 | 8-phenylthio-2′-O-methyladenosine-3′,5′-cyclic monophosphate [Compound I-105] | ++ | 3.6 | 0.02 | 0.0005
